Test results as given in US6649193B1, “Prophylactic therapeutic and industrial antioxidant compositions enhanced with stabilized atomic hydrogen/free electrons and methods to prepare and use such compositions” (Henceforth Hibernia Inc., priority 1999, dated 2003).

Test: Standardized in-vitro tests of free radical / reactive species scavenging
Assay type: biochemical
Conditions: cage-like agent added to the solution before electrolysis
Text: Electrochemical Method to Produce and Encage Atomic Hydrogen: Electrolysis is a very efficient method of producing atomic hydrogen free electrons. In the past, though, it was not possible to separate oxidizing products produced at the anode and reducing products produced at the cathode. Recently, Japanese scientists used a semipermeable membrane to separate the cathode and anode areas, while not perturbing the flow of electrons delivered to the media. Such devices are, for instance, described in Y. Shiramizu et al., J. Electrochem. Soc., Vol. 143, 1632 (1996), the content of which is incorporated by reference in its entirety. In short, such devices consist of a chamber (usually made of noncorrosive material such as plastic) which is divided in two compartments with a water-tight semipermeable Nafion membrane (Dupont corporation). In each compartment, there is an electrode connected to a DC current source. […] Several parameters can be measured to ensure the efficiency of electrolysis. […] The efficiency of reduction of vitamin B12 can be tested by measuring UV/VISIBLE spectra and recording the absorbance at 387 nm, which is proportional to the amount of reduced vitamin B12, see G. Chithambarathanu Pillai and E. S. Gould, Inorganic Chemistry, Vol. 25, 3353 (1986), the content of which is incorporated by reference in its entirety. […]

cyanocobalamin [vitamin B12]
scavenging ability of the electrolyzed solution: enhanced in a dose-dependent fashion
